What was measured:
Assay in all cases: relative viability (nuclei count vs DMSO), 5 days (fraction); higher = more cells survive
Dasatinib + Luminespib = compound: Cc1nc(Nc2ncc(C(=O)Nc3c(C)cccc3Cl)s2)cc(N2CCN(CCO)CC2)n1 [Dasatinib] + CCNC(=O)c1noc(-c2cc(C(C)C)c(O)cc2O)c1-c1ccc(CN2CCOCC2)cc1 [Luminespib] (partner 0.01 µM)
Procedure, shortened: (§1)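 Cells from lung cancer lines were seeded into 1536-well plates and, one day later, dosed by pin tool. Treatments were either a single drug or a fixed dose of an anchor drug with five library-drug doses (not always all listed) in √10 steps. After 5 days, nuclei were stained in a one-step fixation (final 0.05% Triton X-100, 1% formaldehyde, 1 ug/ml Hoechst) and counted on 4× images, and relative viability is the treated-to-vehicle nuclei ratio, as the median of duplicate plates.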

ALW-II-49-7 + Dasatinib = compound: Cc1ccc(C(=O)Nc2cccc(C(F)(F)F)c2)cc1Nc1cncc(C(N)=O)c1 [ALW-II-49-7] + Cc1nc(Nc2ncc(C(=O)Nc3c(C)cccc3Cl)s2)cc(N2CCN(CCO)CC2)n1 [Dasatinib] (partner 0.075 µM)
Procedure, shortened: as §1

XMD13-2 + Foretinib = compound: C1CC1C(=O)NC2=NNC3=C2C=CC(=C3)C4=CC(=CC=C4)C(=O)NC5CC5 [XMD13-2] + COc1cc2c(Oc3ccc(NC(=O)C4(C(=O)Nc5ccc(F)cc5)CC4)cc3F)ccnc2cc1OCCCN1CCOCC1 [Foretinib] (partner 0.25 µM)
Procedure, shortened: as §1

XMD13-2 + Phenformin = compound: C1CC1C(=O)NC2=NNC3=C2C=CC(=C3)C4=CC(=CC=C4)C(=O)NC5CC5 [XMD13-2] + N=C(N)NC(=N)NCCc1ccccc1 [Phenformin] (partner 250 µM)
Procedure, shortened: as §1

UMC-11
relative viability (Dasatinib + Luminespib; first compound 0.005 µM): 0.874
relative viability (Dasatinib + Luminespib; first compound 0.01581 µM): 0.78
relative viability (Dasatinib + Luminespib; first compound 0.05 µM): 0.607
relative viability (Dasatinib + Luminespib; first compound 0.1581 µM): 0.316
relative viability (Dasatinib + Luminespib; first compound 0.5 µM): 0.328
relative viability (ALW-II-49-7 + Dasatinib; first compound 0.08 µM): 0.428
relative viability (ALW-II-49-7 + Dasatinib; first compound 0.253 µM): 0.453
relative viability (ALW-II-49-7 + Dasatinib; first compound 0.8 µM): 0.473
relative viability (ALW-II-49-7 + Dasatinib; first compound 2.53 µM): 0.456
relative viability (ALW-II-49-7 + Dasatinib; first compound 8 µM): 0.519
relative viability (XMD13-2 + Foretinib; first compound 0.05 µM): 1.23
relative viability (XMD13-2 + Foretinib; first compound 0.1581 µM): 1.09
relative viability (XMD13-2 + Foretinib; first compound 0.5 µM): 1
relative viability (XMD13-2 + Foretinib; first compound 1.581 µM): 1.08
relative viability (XMD13-2 + Foretinib; first compound 5 µM): 1.06
relative viability (XMD13-2 + Phenformin; first compound 0.05 µM): 0.362
relative viability (XMD13-2 + Phenformin; first compound 0.1581 µM): 0.314
relative viability (XMD13-2 + Phenformin; first compound 0.5 µM): 0.337
relative viability (XMD13-2 + Phenformin; first compound 1.581 µM): 0.317
relative viability (XMD13-2 + Phenformin; first compound 5 µM): 0.285

From the supplement of paper PMC10307832
